For experiment [1], the target named is Pilz-tyrosinase. The experiment in a line: Tyrosinase assay (inhibition of the enzyme tyrosinase, L-DOPA substrate, optical density at 450 nm). Type of experiment: biochemical. As to conditions: Tyrosinase 10 U, L-DOPA 4 mM, 1 h 37°C. As for the experimental part:
Die Wirkung der Verbindungen nach Formeln Ia bis IIp als Hautaufheller wird geprüft durch ihre Fähigkeit das Enzym Tyrosinase zu hemmen und damit die Melanin-Synthese zu unterbinden. Um die hemmende Wirkung der Verbindungen der Formeln Ia bis IIp gegenüber Tyrosinase zu zeigen wurden als Substrate Pilz-tyrosinase und L-Tyrosin oder L-DOPA verwendet und mit der Referenz-Verbindung verglichen.
Die Verbindungen Ia bis IIp und Tyrosinase (10 U) werden 10 Min. in Eis vorgekühlt und L-DOPA (4 mM) zugefügt und für 1 h auf 37°C gehalten. Es wird die optische Dichte jedes experimentell ermittelten Punktes bei 450 nm gegenüber der entsprechenden Referenz ohne Enzym gemessen. Kojicsäure wird als Tyrosinase-Referenz-Inhibitor benutzt. Die Versuchsergebnisse sind in der folgenden Tabelle 1 dargestellt, ausgedrückt durch den IC 50-Wert (d.h. die Konzentration der jeweiligen Versuchssubstanz bei der die Tyrosinase-Aktivität um 50% blockiert ist). Tab. 1 Tyrosinase-Versuchsergebnisse

The subject of experiment [2] is normale menschliche Melanocyten. The experiment in a line: Melanin assay (melanin content of human melanocyte cultures, optical density at 405 nm). As to conditions: 240 h incubation; for % Kontrolle normiert*: melanin content normalised; for % Kontrolle: melanin content. Type of experiment: cell-based. The text has this: Das Potential der Verbindungen nach Formeln Ia bis IIp als Hautaufheller-Wirkstoff wurde außerdem durch den Melanin-Versuch verifiziert. Der Effekt in Bezug auf den Melanin-Gehalt von menschlichen epidermalen Melanocyten-Kulturen dieser Verbindungen wurde ermittelt und mit der Referenzverbindung (Kojicsäure) verglichen.
Eine vorausgehende Cytotoxizitäts-Studie der Verbindungen nach Formeln Ia bis IIp wurde durchgeführt um drei nicht-cytotoxische Konzentrationen für den Melanin-Versuch zu ermitteln.
Melanin-Versuch: normale menschliche Melanocyten wurden in 24 Lochplatten (110.000 Zellen/Loch) kultiviert. Bei 50 % Zusammenfluss wurde das Kulturmedium mit oder ohne (Kontrollverbindung) Verbindungen der Formeln Ia bis IIp durch frisches Kulturmedium in drei verschiedenen Konzentrationen ersetzt.
Nach der Inkubation (240 Stunden) wurden die Monolayers gewaschen, die Zellen lysiert und das Melanin extrahiert. Es wurde die optische Dichte jedes experimentellen Punktes bei 405 nm gegen den Melanin-Standard gemessen. Tabelle 2 zeigt die Ergebnisse zwei ausgewählter Verbindungen im Vergleich zur Kojicsäure und der Kontrollverbindung (mit 100% Melaningehalt), wobei der ermittelte Melaningehalt (in %) bei jeweils drei verschiedenen Konzentrationen angegeben ist. Tab. 2 Melanin-Versuchsergebnisse

Where only a bound is given, the exact number is not on record here.

In general, IC50 refers to the concentration that inhibits the measured activity by half.

On to `c1ccc(CN2CCNCC2)nc1` [IIp, 1-Pyridin-2-ylmethyl-piperazin], for which, in experiment [1], the IC50 came out at 553 µM.

As for `Oc1ccc(CN2CCN(Cc3ccccc3)CC2)c(O)c1` [Ib, 4-(4-Benzyl-piperazin-1-ylmethyl)-benzen-1,3-diol], in experiment [1], the IC50 amounted to 154 µM. In addition, in experiment [2] (Konzent. 0.8 µg/mL), the Melanin is on record as 37.8 µg/mL, the “Melanin normiert*” value was found to be 37.1 µglmL, the “% Kontrolle normiert*” value is given as 100% and the “% Kontrolle” value is listed as 102%. In experiment [2] (Konzent. 4 µg/mL), the Melanin worked out at 37.1 µg/mL, the “Melanin normiert*” value came out at 34.8 µglmL, the “% Kontrolle normiert*” value is given as 94% and the “% Kontrolle” value is recorded as 100%.

In turn, `c1ccc(CN2CCN(Cc3ccc4c(c3)OCO4)CC2)cc1` [Ij, 1-Benzo[1,3]dioxol-5-ylmethyl-4-benzyl-piperazin] showed a concentration for half-maximal inhibition (IC50) in experiment [1] of 153 µM.

Regarding `Oc1cccc(CN2CCN(Cc3ccccc3)CC2)c1O` [Ia, 3-(4-Benzyl-piperazin-1-ylmethyl)-benzen-1,2-diol], the IC50 in experiment [1] stood at 134 µM. Also, in experiment [2] (Konzent. 0.8 µg/mL), the Melanin amounted to 38.6 µg/mL, the “Melanin normiert*” value is listed as 36.4 µglmL, the “% Kontrolle normiert*” value came to 98% and the “% Kontrolle” value turned out to be 104%.

In experiment [1], `c1cc(CN2CCNCC2)ccn1` [IIn, 1-Pydridin-4-ylmethyl-piperazin] displayed an IC50 of 280 µM.

As for `Oc1cc(O)cc(CN2CCN(Cc3ccccc3)CC2)c1` [Id, 5-(4-Benzyl-piperazin-1-ylmethyl)-benzen-1,3-diol], the IC50 in experiment [1] was above 1000 µM.

In turn, `c1ccc(CN2CCN(Cc3ccccn3)CC2)cc1` [IIk, 1-Benzyl-4-pyridin-2-ylmethyl-piperazin] returned an IC50 in experiment [1] above 1000 µM.

In experiment [1], `CC(C)(C)OC(=O)N1CCN(Cc2ccc(O)cc2O)CC1` [If, 4-(4-tert-Butoxycarbinyl-piperazin-1-ylmethyl)-benzen-1,3-diol] came in with an IC50 of 140 µM.

In experiment [1], `COc1ccc(CN2CCN(Cc3ccccc3)CC2)c(OC)c1` [Ii, 1-Benzyl-4-(2,4-dimethoxy-benzyl)-piperazin] displayed an IC50 above 1000 µM.

The molecule `Oc1ccc(CN2CCOCC2)c(O)c1` [Ih, 4-Morpholin-1-ylmethyl-benzen-1,3-diol] had an IC50 in experiment [1] of 78 µM. Also, in experiment [2] (Konzent. 1.6 µg/mL), the Melanin amounted to 37.2 µg/mL, the “Melanin normiert*” value was 37.0 µglmL, the “% Kontrolle normiert*” value is recorded as 99% and the “% Kontrolle” value is 100%. For the same molecule, in experiment [2] (Konzent. 8 µg/mL), the Melanin is 35.3 µg/mL, the “Melanin normiert*” value is 32.1 µglmL, the “% Kontrolle normiert*” value was 86% and the “% Kontrolle” value is on record as 95%. In experiment [2] (Konzent. 40 µg/mL), the Melanin is reported as 30.6 µg/mL, the “Melanin normiert*” value is 30.4 µglmL, the “% Kontrolle normiert*” value is listed as 82% and the “% Kontrolle” value is 82%.

In experiment [1], `c1cncc(CN2CCNCC2)c1` [IIo, 1-Pyridin-3-ylmethyl-piperazin] gave an IC50 of 360 µM.

In experiment [1], `O=c1cc(CO)occ1O` [Kojicsäure, reference compound] registered an IC50 of 12 µM. In experiment [2] (Konzent. 6.8 µg/mL), the Melanin amounted to 34.4 µg/mL, the “Melanin normiert*” value worked out at 38.0 µglmL, the “% Kontrolle normiert*” value came out at 101% and the “% Kontrolle” value was 92%. Besides, in experiment [2] (Konzent. 15.6 µg/mL), the Melanin came to 30 µg/mL, the “Melanin normiert*” value is reported as 34.6 µglmL, the “% Kontrolle normiert*” value is listed as 92% and the “% Kontrolle” value was determined as 80%. In addition, in experiment [2] (Konzent. 36 µg/mL), the Melanin was 23.8 µg/mL, the “Melanin normiert*” value is 31.7 µglmL, the “% Kontrolle normiert*” value was 85% and the “% Kontrolle” value was 64%.

`CCN1CCN(Cc2ccc(O)cc2O)CC1` [Ie, 4-(4-Ethyl-piperazin-1-ylmethyl)-benzen-1,3-diol] showed an IC50 in experiment [1] of 263 µM. In experiment [2] (Konzent. 0.8 µg/mL), the Melanin turned out to be 37.3 µg/mL, the “Melanin normiert*” value turned out to be 36.5 µglmL, the “% Kontrolle normiert*” value worked out at 98% and the “% Kontrolle” value turned out to be 100%. Besides, in experiment [2] (Konzent. 4 µg/mL), the Melanin worked out at 37.5 µg/mL, the “Melanin normiert*” value was found to be 36.0 µglmL, the “% Kontrolle normiert*” value is reported as 97% and the “% Kontrolle” value is given as 101%. Further, in experiment [2] (Konzent. 20 µg/mL), the Melanin was found to be 33.8 µg/mL, the “Melanin normiert*” value came to 32.9 µglmL, the “% Kontrolle normiert*” value amounted to 88% and the “% Kontrolle” value turned out to be 91%.

For the origin of these results see EP1893207B1, “USE OF SUBSTITUTED PIPERAZINE DERIVATIVES AND MORPHOLINE DERIVATIVES” (Merck Patent GmbH, priority 2005, dated 2006).
